Like-named read-outs stand apart in the source and are kept apart here. Where no end group is shown, it is not given here.
Assays:
K. pneumoniae TISTR 1383 [1] = assay type: cell-based, Klebsiella pneumoniae; conditions: TISTR 1383, 24 h
Experimental: (§1) A bacterial suspension was prepared by adjusting its turbidity at OD 625 nm to 0.1 and subsequently made a 20-fold dilution using Cation-Adjusted Mueller–Hinton broth (CAHMB) as a diluent. […] The diluted cell suspension (10 µL) was added to each well, and the plates were incubated at 37 °C for 24 h. The CAMHB alone was used as a negative control, while CAMHB containing colistin or vancomycin served as a positive control.

MRSA Strain 2468 = assay: microbe, parasite or virus in culture; assay type: cell-based, Staphylococcus aureus; conditions: Strain 2468, 24 h
Experimental: as §1

S. aureus TISTR 517 = assay: microbe, parasite or virus in culture; assay type: cell-based, Staphylococcus aureus; conditions: TISTR 517, 24 h
Experimental: as §1

E. coli TISTR 887 [2] = assay: Antimicrobial activity of purification fractions (arbitrary units, two-fold dilutions, agar well diffusion); assay type: cell-based, Escherichia coli; conditions: against E. coli TISTR 887
Experimental: Single colonies of the Na14 isolate were resuspended in 0.9% NaCl solution, and the cell suspension was adjusted to an OD of 0.35 at 625 nm. A 2% aliquot of this suspension was inoculated into 196 mL of LB broth and incubated at 37 °C for 24 h. The CFS was collected by centrifugation at 10,000× g for 15 min at 4 °C. Bioactive compounds were then precipitated using stepwise ammonium sulfate precipitation at 25%, 50%, and 75% saturation levels. The active compounds were purified using cation exchange chromatography (CIEX) followed by reversed-phase chromatography (RPC), as described in our previous study. The purified compounds were concentrated using a refrigerated speed vacuum concentrator. The dried samples were reconstituted in deionized water and subjected to two-fold serial dilutions. An aliquot (100 µL) of each dilution was used to evaluate antimicrobial activity using the agar well diffusion method, employing E. coli TISTR 887 as the tested bacteria. The purification efficiency was assessed by calculating antimicrobial activity at each purification stage using the following equation [49]. Antimicrobial activity (arbitrary unit/mL; AU/mL)= 2^n × 1000/V where n represents the reciprocal of the highest two-fold dilution that produces a visible inhibition zone, and V denotes the volume of the sample in µL.

E. coli TISTR 887 [3] = conditions: agar well diffusion vs untreated control, mean ± SD, three independent experiments
Experimental: (§3) The purified Na14 AMP was prepared at a concentration of 10× MIC. Thermal stability was assessed by incubating the peptide at 30 °C, 50 °C, 70 °C, and 90 °C for 3 h. pH stability was evaluated by adjusting the peptide solution to pH 3, 5, 7, 9, and 11 using 1 N HCl or 1 N NaOH, followed by incubation at 37 °C for 3 h and subsequent neutralization to the original pH. […] The residual antimicrobial activity of each treatment condition was determined using an agar well diffusion assay against E. coli TISTR 887, P. aeruginosa TISTR 357, and K. pneumoniae TISTR 1383 to cross-validate efficacy across multiple pathogens. The untreated peptide served as a control. Statistical significance was analyzed using one-way ANOVA, with comparisons to the control group considered significant at p-value < 0.05. The results are presented as the percentage of residual antimicrobial activity.

P. aeruginosa TISTR 357 [4] = assay type: cell-based, Pseudomonas aeruginosa; conditions: TISTR 357, 24 h
Experimental: as §1

K. pneumoniae TISTR 1383 [5] = conditions: agar well diffusion vs untreated control, mean ± SD, three independent experiments
Experimental: as §3

P. aeruginosa TISTR 357 [6] = assay: Time–kill assay; assay type: cell-based, Pseudomonas aeruginosa
Experimental: (§2) The cultures were diluted 20-fold using CAMHB. […] The diluted bacterial suspension (10 μL) was mixed into each well before incubating the plates at 37 °C. At predetermined time points, 100 μL of either diluted or undiluted samples from each well were plated on MH agar and incubated at 37 °C for 24 h. Bacterial viability was assessed by colony counting and expressed as log CFU/mL [56].

E. coli TISTR 887 [7] = assay: Time–kill assay; assay type: cell-based, Escherichia coli
Experimental: as §2

K. pneumoniae TISTR 1383 [8] = assay: Time–kill assay; assay type: cell-based, Klebsiella pneumoniae
Experimental: as §2

E. coli TISTR 887 [9] = assay type: cell-based, Escherichia coli; conditions: TISTR 887, 24 h
Experimental: as §1

P. aeruginosa TISTR 357 [10] = conditions: agar well diffusion vs untreated control, mean ± SD, three independent experiments
Experimental: as §3

E. coli TISTR 887 [11] = assay: SDS-PAGE gel overlay inhibition assay; assay type: cell-based, Escherichia coli; conditions: 15% SDS-PAGE gel overlaid with soft agar containing E. coli TISTR 887; at the position of the peptide band
Experimental: The peptides ([…]) were subjected to analysis using a 15% sodium dodecyl sulfate-polyacrylamide gel electrophoresis (SDS-PAGE). The gel was electrophoresed at a constant voltage of 100 V. One half of the gel was stained using Coomassie brilliant blue G-250 to visualize protein bands, with a molecular weight marker included to facilitate band position comparison. The remaining half was fixed in a solution containing 5% acetic acid and 25% methanol for 30 min, followed by a 3 h wash with distilled water. Subsequently, 18 mL of soft MH agar, including E. coli TISTR 887, was overlaid onto the gel to assess antimicrobial activity by observing inhibition zones after incubation at 37 °C for 24 h.

[12] = system: E. coli TISTR 887, P. aeruginosa TISTR 357, K. pneumoniae TISTR 1383; assay: Time–kill kinetic assay, statement for all tested strains; assay type: cell-based; conditions: peptide at 1× MIC
Experimental: as §2

MRSA = conditions: 10× MIC; cited from earlier work
K. pneumoniae LMG20218 = conditions: cited from earlier work
P. aeruginosa LMG6395 = conditions: cited from earlier work
MRSA ATCC 15975 = conditions: cited from earlier work
E. coli ATCC 25922 = conditions: cited from earlier work
[13] = peptide at 10× MIC adjusted to pH 3 (1 N HCl or 1 N NaOH), 37 °C, 3 h, then neutralized
[14] = peptide at 10× MIC adjusted to pH 5, 37 °C, 3 h, then neutralized
[15] = peptide at 10× MIC adjusted to pH 7, 37 °C, 3 h, then neutralized
[16] = peptide at 10× MIC adjusted to pH 9, 37 °C, 3 h, then neutralized
[17] = peptide at 10× MIC adjusted to pH 11, 37 °C, 3 h, then neutralized
[18] = peptide at 10× MIC incubated at 30 °C for 3 h
[19] = peptide at 10× MIC incubated at 50 °C for 3 h
[20] = peptide at 10× MIC incubated at 70 °C for 3 h
[21] = peptide at 10× MIC incubated at 90 °C for 3 h
[22] = peptide at 0.5× MIC, growth resumed thereafter until 24 h
[23] = peptide at 1× MIC, CAMHB, 37 °C, LOD 10 CFU/mL
[24] = peptide at 2× MIC, CAMHB, 37 °C, LOD 10 CFU/mL

LALLVVVKVLKYVV [Na14 peptide]
MBC, K. pneumoniae TISTR 1383 (K. pneumoniae TISTR 1383 [1]): 4 µg/mL | MIC, K. pneumoniae TISTR 1383 (K. pneumoniae TISTR 1383 [1]): 4 µg/mL | MBC, MRSA strain 2468 (MRSA Strain 2468): >128 µg/mL | MIC, MRSA strain 2468 (MRSA Strain 2468): >128 µg/mL | MBC, S. aureus TISTR 517 (S. aureus TISTR 517): >128 µg/mL | MIC, S. aureus TISTR 517 (S. aureus TISTR 517): >128 µg/mL | Specific Activity (E. coli TISTR 887 [2]; purification balance sheet): 835.99 AU/mg | Arbitrary Activity (E. coli TISTR 887 [2]; two-fold serial dilutions, 100 µL, agar well diffusion, AU/mL = 2^n × 1000/V): 320 AU/mL | Residual Antimicrobial Activity, E. coli TISTR 887 (E. coli TISTR 887 [3]; [13]): 100.64 ± 2.30% | Residual Antimicrobial Activity, E. coli TISTR 887 (E. coli TISTR 887 [3]; [14]): 100.85 ± 1.95% | Residual Antimicrobial Activity, E. coli TISTR 887 (E. coli TISTR 887 [3]; [15]): 99.36 ± 2.93% | Residual Antimicrobial Activity, E. coli TISTR 887 (E. coli TISTR 887 [3]; [16]): 98.72 ± 1.28% | Residual Antimicrobial Activity, E. coli TISTR 887 (E. coli TISTR 887 [3]; [17]): 98.51 ± 1.33% | Residual Antimicrobial Activity, E. coli TISTR 887 (E. coli TISTR 887 [3]; [18]): 98.24 ± 1.67% | Residual Antimicrobial Activity, E. coli TISTR 887 (E. coli TISTR 887 [3]; [19]): 99.12 ± 1.02% | Residual Antimicrobial Activity, E. coli TISTR 887 (E. coli TISTR 887 [3]; [20]): 98.89 ± 2.03% | Residual Antimicrobial Activity, E. coli TISTR 887 (E. coli TISTR 887 [3]; [21]): 98.46 ± 1.55% | MBC, P. aeruginosa TISTR 357 (P. aeruginosa TISTR 357 [4]): 2 µg/mL | MIC, P. aeruginosa TISTR 357 (P. aeruginosa TISTR 357 [4]): 2 µg/mL | Residual Antimicrobial Activity, K. pneumoniae TISTR 1383 (K. pneumoniae TISTR 1383 [5]; [13]): 100.43 ± 0.37% | Residual Antimicrobial Activity, K. pneumoniae TISTR 1383 (K. pneumoniae TISTR 1383 [5]; [14]): 99.14 ± 1.35% | Residual Antimicrobial Activity, K. pneumoniae TISTR 1383 (K. pneumoniae TISTR 1383 [5]; [15]): 98.06 ± 2.34% | Residual Antimicrobial Activity, K. pneumoniae TISTR 1383 (K. pneumoniae TISTR 1383 [5]; [16]): 97.62 ± 2.08% | Residual Antimicrobial Activity, K. pneumoniae TISTR 1383 (K. pneumoniae TISTR 1383 [5]; [17]): 99.57 ± 2.08% | Residual Antimicrobial Activity, K. pneumoniae TISTR 1383 (K. pneumoniae TISTR 1383 [5]; [18]): 100.89 ± 0.39% | Residual Antimicrobial Activity, K. pneumoniae TISTR 1383 (K. pneumoniae TISTR 1383 [5]; [19]): 98.21 ± 4.09% | Residual Antimicrobial Activity, K. pneumoniae TISTR 1383 (K. pneumoniae TISTR 1383 [5]; [20]): 98.66 ± 4.07% | Residual Antimicrobial Activity, K. pneumoniae TISTR 1383 (K. pneumoniae TISTR 1383 [5]; [21]): 99.11 ± 1.39% | duration of temporary growth suppression, P. aeruginosa TISTR 357 (P. aeruginosa TISTR 357 [6]; [22]): 3 h | time at which bacteria were eliminated, P. aeruginosa TISTR 357 (P. aeruginosa TISTR 357 [6]; [23]): 6 h | time of complete eradication, P. aeruginosa TISTR 357 (P. aeruginosa TISTR 357 [6]; [24]): 3 h | duration of temporary growth suppression, E. coli TISTR 887 (E. coli TISTR 887 [7]; [22]): 3 h | time at which bacteria were eliminated, E. coli TISTR 887 (E. coli TISTR 887 [7]; [23]): 12 h | time of complete eradication, E. coli TISTR 887 (E. coli TISTR 887 [7]; [24]): 6 h | duration of growth inhibition, K. pneumoniae TISTR 1383 (K. pneumoniae TISTR 1383 [8]; [22]): up to 6 h | time at which bacteria were eliminated, K. pneumoniae TISTR 1383 (K. pneumoniae TISTR 1383 [8]; [23]): 9 h | time of complete eradication, K. pneumoniae TISTR 1383 (K. pneumoniae TISTR 1383 [8]; [24]): 6 h | MBC, E. coli TISTR 887 (E. coli TISTR 887 [9]): 2 µg/mL | MIC, E. coli TISTR 887 (E. coli TISTR 887 [9]): 2 µg/mL | Residual Antimicrobial Activity, P. aeruginosa TISTR 357 (P. aeruginosa TISTR 357 [10]; [13]): 99.58 ± 0.74% | Residual Antimicrobial Activity, P. aeruginosa TISTR 357 (P. aeruginosa TISTR 357 [10]; [14]): 99.36 ± 1.69% | Residual Antimicrobial Activity, P. aeruginosa TISTR 357 (P. aeruginosa TISTR 357 [10]; [15]): 99.36 ± 3.18% | Residual Antimicrobial Activity, P. aeruginosa TISTR 357 (P. aeruginosa TISTR 357 [10]; [16]): 98.73 ± 2.30% | Residual Antimicrobial Activity, P. aeruginosa TISTR 357 (P. aeruginosa TISTR 357 [10]; [17]): 98.30 ± 2.24% | Residual Antimicrobial Activity, P. aeruginosa TISTR 357 (P. aeruginosa TISTR 357 [10]; [18]): 98.08 ± 1.11% | Residual Antimicrobial Activity, P. aeruginosa TISTR 357 (P. aeruginosa TISTR 357 [10]; [19]): 98.51 ± 0.37% | Residual Antimicrobial Activity, P. aeruginosa TISTR 357 (P. aeruginosa TISTR 357 [10]; [20]): 98.72 ± 0.64% | Residual Antimicrobial Activity, P. aeruginosa TISTR 357 (P. aeruginosa TISTR 357 [10]; [21]): 97.22 ± 1.62% | gel overlay inhibition of E. coli TISTR 887 (E. coli TISTR 887 [11]): An inhibition zone was observed | reduction of bacterial counts [12]: more than 3 log units

brevibacillin 2V
time to complete killing of MRSA (MRSA): ≤ 6 h | MIC, K. pneumoniae LMG20218 (K. pneumoniae LMG20218): 32 µg/mL | MIC, P. aeruginosa LMG6395 (P. aeruginosa LMG6395): 64 µg/mL | MIC, MRSA ATCC 15975 (MRSA ATCC 15975): 2 µg/mL | MIC, E. coli ATCC 25922 (E. coli ATCC 25922): 16 µg/mL

From paper PMC12383022, “Discovery of a Novel Antimicrobial Peptide from Paenibacillus sp. Na14 with Potent Activity Against Gram-Negative Bacteria and Genomic Insights into Its Biosynthetic Pathway” (Antibiotics, 2025)
